This data set is described as follows: Antiproliferative activity against human MDR1 transfected mouse L5178Y cell line.

The structures appear in SMILES notation.

Turning to `COc1ccc(CCN(C)CCN2C(=O)C3C4c5ccccc5C(c5ccccc54)C3C2=O)cc1OC` (stereo not drawn), half-maximal inhibition (IC50) required 4.23 µM.
The result for `COc1ccc(CCN(C)CC#CCN2C(=O)C3C4c5ccccc5C(c5ccccc54)C3C2=O)cc1OC` (stereo not drawn) reads 2.55 µM.
The result for `COc1ccc(CCN(C)CCCN2C(=O)C3C4c5ccccc5C(c5ccccc54)C3C2=O)cc1OC` (stereo not drawn) reads 5.72 µM.

(Values after BindingDB's records for doi:10.1021/jm060056p (University of Bologna, 2006).)
